Results as given in patent publication US20040152741A1, “Arylglycine derivatives and their use as glycine transport inhibitors” (NPS Allelix Corporation, priority 2002, published 2004).
pIC50: −log10 of the molar value.

What follows are compounds tested against T1, GlyT-1 C (Homo sapiens, UniProt P48067) (assay: Assay of transport via GlyT-1: [3H]glycine uptake by stably transfected cells). Details: cells stably transfected with GlyT-1 C; 50 nM [3H]glycine, 30 minutes at 37° C.; read-out: GlyT1 uptake IC50.
T1 construct: expressed in transfected cells; QT-6 quail fibroblast cells are called preferred
T1 sequence (P48067 1-706): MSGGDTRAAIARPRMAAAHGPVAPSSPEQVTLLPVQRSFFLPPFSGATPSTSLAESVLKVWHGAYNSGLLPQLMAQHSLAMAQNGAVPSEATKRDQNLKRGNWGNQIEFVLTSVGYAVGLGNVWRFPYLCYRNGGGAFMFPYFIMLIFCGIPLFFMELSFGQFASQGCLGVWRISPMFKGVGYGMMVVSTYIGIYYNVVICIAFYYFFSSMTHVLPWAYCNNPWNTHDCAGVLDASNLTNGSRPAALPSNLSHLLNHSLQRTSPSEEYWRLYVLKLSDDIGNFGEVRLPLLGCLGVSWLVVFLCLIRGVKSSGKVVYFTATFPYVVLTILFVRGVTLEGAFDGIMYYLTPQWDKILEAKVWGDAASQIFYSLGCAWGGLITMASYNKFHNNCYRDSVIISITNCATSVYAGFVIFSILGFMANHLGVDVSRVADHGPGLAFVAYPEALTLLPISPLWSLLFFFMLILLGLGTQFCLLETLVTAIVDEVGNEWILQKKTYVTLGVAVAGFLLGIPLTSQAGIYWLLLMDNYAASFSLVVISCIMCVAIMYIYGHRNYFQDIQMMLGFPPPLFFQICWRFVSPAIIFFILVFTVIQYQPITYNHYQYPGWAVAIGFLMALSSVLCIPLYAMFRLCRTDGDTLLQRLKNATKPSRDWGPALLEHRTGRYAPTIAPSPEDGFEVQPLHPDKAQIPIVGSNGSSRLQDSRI
Assay type: cell-based
Text: For use in assaying for activity in inhibiting glycine transport, eukaryokic cells, preferably QT-6 cells derived from quail fibroblasts, have been transfected to express one of the three known variants of human GlyT-1, namely GlyT-1a, GlyT-1b or GlyT-1c, or human GlyT-2. The sequences of these GlyT-1 transporters are described in Kim et al., Molec. Pharm. 45: 608-617, 1994, excepting that the sequence encoding the extreme N-terminal of GlyT-1a was merely inferred from the corresponding rat-derived sequence. This N-terminal protein-encoding sequence has now been confirmed to correspond to that inferred by Kim et al. The sequence of the human GlyT-2 is described by Albert et al., U.S. Pat. No. 919,653 issued July 1999, which is incorporated herein by reference in its entirety. Suitable expression vectors include pRc/CMV (Invitrogen), Zap Express Vector (Stratagene Cloning Systems, LaJolla, Calif.; hereinafter “Stratagene”), pBk/CMV or pBk-RSV vectors (Stratagene), Bluescript II SK +/− Phagemid Vectors (Stratagene), LacSwitch (Stratagene), pMAM and pMAM neo (Clontech), among others. A suitable expression vector is capable of fostering expression of the included GlyT DNA in a suitable host cell, preferably a non-mammalian host cell, which can be eukaryotic, fungal, or prokaryotic. Such preferred host cells include amphibian, avian, fungal, insect, and reptilian cells.
This example illustrates a method for the measurement of glycine uptake by transfected cultured cells.
Cells stably transfected with GlyT-1 C (see Kim, et al., Molecular Pharmacology, 45, 1994:608-617) were washed twice with HEPES buffered saline (HBS). The cells were then incubated for 10 minutes at 37° C. with either (a) no potential competitor, (b) 10 mM non-radioactive glycine or (c) a concentration of a candidate drug. A range of concentrations of the candidate drug was used to generate data for calculating the concentration resulting in 50% of the effect (e.g., the IC50s, which are the concentrations of drug inhibiting glycine uptake by 50%). A solution was then added containing [^3H]glycine at a final concentration of 50 nM (17.5 Ci/mmol). The cells were then incubated with gentle shaking for another 30 minutes at 37° C., after which the reaction mixture was aspirated and washed three times with ice-cold HBS. The cells were lysed with scintillant and allowed to equilibrate. The radioactivity in the cells was determined using a scintillation counter. Data was compared between the same cells contacted or not contacted by a candidate agent, depending on the assay being conducted.
`COc1ccc([N+](=O)[O-])cc1NC(=O)N[C@@H](C(=O)Nc1ccc2c(c1)CCC2)c1ccccc1` [E29.1*] was tested, and the pIC50 was 7.14.
For `COc1ccc([N+](=O)[O-])cc1NC(=S)N[C@@H](C(=O)Nc1ccc(C)c(C)c1)c1ccccc1` [E33.1*, (R)-2-[3-(2-methoxy-5-nitro-phenyl)-thioureido]-N-(3,4-dimethylphenyl)-2-phenyl acetamide], the pIC50 was 7.02.
`COc1ccc([N+](=O)[O-])cc1NC(=O)NC(C(=O)Nc1cccc(C(F)(F)F)c1)c1ccccc1` (stereo not shown) [Experiment E31.2, 2-[3-(2-methoxy-5-nitro-phenyl)-ureido]-N-(3-trifluoromethylphenyl)-2-phenyl acetamide] was tested, and the pIC50 was 6.69.
`COc1ccc([N+](=O)[O-])cc1NC(=S)NC(C(=O)Nc1ccc(C)c(C)c1)c1ccccc1` (stereo not shown) [Experiment E32.2, 2-[3-(2-methoxy-5-nitro-phenyl)-thioureido]-N-(3,4-dimethylphenyl)-2-phenyl acetamide] showed a pIC50 of 6.48.
With `COc1ccc([N+](=O)[O-])cc1NC(=O)N[C@@H](C(=O)Nc1ccc(C)c(C)c1)c1ccccc1` [Experiment E32.5, (R)-2-[3-(2-methoxy-5-nitro-phenyl)-ureido]-N-(3,4-dimethylphenyl)-2-phenyl acetamide] the pIC50 was 7.59.
Compound `COc1ccc([N+](=O)[O-])cc1NC(=O)NC(C(=O)Nc1ccc2c(c1)CCC2)c1ccsc1` (stereo not shown) [Experiment E42.1] has a pIC50 of 6.94.
For `COc1ccc([N+](=O)[O-])cc1NC(=S)NC(C(=O)Nc1ccc2c(c1)CCC2)c1ccsc1` (stereo not shown) [Experiment E42.2], the pIC50 was 6.88.
